Experimental data from ChEMBL document CHEMBL1201862, “PubChem BioAssay data set” (2004).
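All cell lines were grown in 96-well plates and treated with compound for 48 hours. GI50: concentration for 50% inhibition of growth.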 Active and inactive are the calls of the source. Cut-off read from the data, not from the text of the source: active = GI50 up to about 1.1 µM and inactive = higher.

Experiments:
Assay in all cases: growth of human tumour cells (NCI), 48 h
[1] = test system: SF-539
[2] = test system: A549
[3] = test system: Malme-3M
[4] = test system: CAKI-1
[5] = test system: SK-MEL-2
[6] = test system: SW-620
[7] = test system: RPMI-8226
[8] = test system: TK-10
[9] = test system: A498
[10] = test system: K562
[11] = test system: SNB-75
[12] = test system: COLO 205
[13] = test system: SF-268
[14] = test system: EKVX
[15] = test system: M14
[16] = test system: MOLT-4
[17] = test system: HL-60
[18] = test system: NCI-H522

Measured: GI50

CCN1CCC(O)(c2ccccc2)C(C(=O)c2ccccc2)C1 (configuration not stated)
inactive: [1] 62.5 µM | [2] > 67.1 µM | [3] 21.1 µM | [4] 14 µM | [5] > 100 µM | [6] 17.6 µM | [7] 6.35 µM | [8] 23.2 µM | [9] > 100 µM | [10] 23.7 µM | [11] > 89.3 µM | [12] 22.4 µM | [13] > 31.6 µM | [14] > 49.2 µM | [15] 17.3 µM | [16] 21.7 µM | [17] 19.5 µM | [18] 2.62 µM

S=c1sc2sc(=S)sc2s1
inactive: [1] 23.9 µM | [2] 31.6 µM | [3] > 100 µM | [4] > 100 µM | [5] > 100 µM | [6] > 100 µM | [7] 23.1 µM | [8] > 100 µM | [9] 23.5 µM | [10] 22.3 µM | [11] 35.5 µM | [12] 84.9 µM | [13] 43.1 µM | [15] 21.1 µM | [16] 28.8 µM | [17] 5.92 µM | [18] 33.1 µM

Cn1cc(C(=O)c2ccccc2)c2ccccc2c1=O
inactive: [1] > 100 µM | [2] > 100 µM | [3] > 100 µM | [4] 50.6 µM | [5] > 100 µM | [6] > 100 µM | [7] 94.2 µM | [8] 73.1 µM | [11] 23.4 µM | [12] > 100 µM | [13] > 100 µM | [14] > 100 µM | [15] > 100 µM | [16] > 100 µM | [17] 24.8 µM | [18] 34.4 µM

Cc1cc2c(=O)c(C)n[nH]c2c(C#N)c1C
inactive: [1] > 100 µM | [2] > 100 µM | [3] > 100 µM | [5] > 10 µM | [6] > 100 µM | [7] > 100 µM | [8] > 100 µM | [11] > 100 µM | [12] > 100 µM | [13] > 100 µM | [14] > 100 µM | [16] > 100 µM | [17] > 100 µM

CSC1=Nc2ccccc2N=C(c2ccc(Cl)cc2)C1
inactive: [1] 40 µM | [2] 43.8 µM | [3] 35.2 µM | [4] 22 µM | [5] 25.4 µM | [6] 39.1 µM | [7] 33.4 µM | [10] 34.8 µM | [12] 59.6 µM | [13] 42.3 µM | [14] 20.5 µM | [15] 36.1 µM | [16] 21.7 µM | [17] 35.3 µM | [18] 43.1 µM

CC1=NN(C(=O)CC(=O)Nc2ccccc2F)C(=O)C1/N=N/c1ccccc1[N+](=O)[O-] (configuration not stated)
inactive: [1] 58.7 µM | [2] 64.7 µM | [3] > 100 µM | [4] 75.5 µM | [5] > 100 µM | [6] > 100 µM | [7] > 100 µM | [8] > 100 µM | [10] > 100 µM | [11] > 100 µM | [12] > 100 µM | [13] > 100 µM | [14] 26.5 µM | [15] > 100 µM | [16] 73.8 µM | [18] 51.8 µM

C=C1CN2CCc3c([nH]c4ccccc34)C2CC1CC(=O)N(C)C (configuration not stated)
inactive: [1] > 309 µM | [2] > 309 µM | [3] > 309 µM | [4] > 309 µM | [5] > 309 µM | [6] > 309 µM | [7] > 309 µM | [8] > 309 µM | [10] > 309 µM | [12] > 309 µM | [13] > 309 µM | [14] > 309 µM | [16] > 309 µM | [17] > 309 µM | [18] > 309 µM

COC1=C(OC)CCC(/C(C#N)=C/c2ccc(OC)c(OC)c2)=C1
inactive: [1] 59.3 µM | [2] > 100 µM | [4] > 100 µM | [5] 85.9 µM | [6] > 100 µM | [7] > 100 µM | [8] 34.2 µM | [9] > 100 µM | [10] 48.3 µM | [11] 16 µM | [12] 95.3 µM | [13] 37.2 µM | [15] > 100 µM | [16] > 100 µM | [18] 21.4 µM

O=C(CC(C(=O)c1cccs1)c1ccsc1)c1ccccc1 (configuration not stated)
inactive: [1] > 100 µM | [2] 21.5 µM | [4] > 100 µM | [6] > 100 µM | [7] 48.8 µM | [8] > 100 µM | [9] 51.8 µM | [11] > 100 µM | [12] > 100 µM | [13] > 100 µM | [14] > 100 µM | [15] 34.9 µM | [16] 36.6 µM | [18] 61.7 µM

O=C(O)CC12C3C4C5C3C1C5C42 (configuration not stated)
inactive: [1] > 100 µM | [2] > 100 µM | [3] > 100 µM | [4] > 100 µM | [5] > 100 µM | [6] > 100 µM | [7] > 100 µM | [8] > 100 µM | [9] > 100 µM | [10] > 100 µM | [11] 76.2 µM | [12] > 100 µM | [13] > 100 µM | [14] > 100 µM | [15] > 100 µM | [16] > 100 µM | [17] > 100 µM | [18] > 100 µM

CC(=O)OC1COC(n2ccc3cc(Br)c([N+](=O)[O-])cc32)C(OC(C)=O)C1OC(C)=O (configuration not stated)
inactive: [1] 22.2 µM | [2] 27.8 µM | [3] 24.2 µM | [4] 33.7 µM | [5] > 10 µM | [6] 39.5 µM | [7] 22.5 µM | [8] 27 µM | [9] 19.1 µM | [10] 29.6 µM | [11] 23.1 µM | [12] 23.7 µM | [13] 33.4 µM | [14] 39.4 µM | [15] 35.8 µM | [16] > 10 µM | [18] > 10 µM

CC1(Cl)C(=O)NC(=O)N(C2CC(N=[N+]=[N-])C(CO)O2)C1N=[N+]=[N-] (configuration not stated)
inactive: [1] > 100 µM | [2] > 100 µM | [3] > 100 µM | [4] > 100 µM | [5] > 100 µM | [6] > 100 µM | [7] > 100 µM | [8] > 100 µM | [9] > 100 µM | [10] > 100 µM | [11] > 100 µM | [12] > 100 µM | [13] > 100 µM | [14] > 100 µM | [15] > 100 µM | [16] > 100 µM | [17] > 100 µM | [18] > 100 µM

CC(=O)/C(=C\c1ccco1)C(=O)Nc1ccccc1
inactive: [1] > 100 µM | [2] > 100 µM | [3] > 100 µM | [4] > 100 µM | [5] > 100 µM | [6] > 100 µM | [7] > 100 µM | [8] > 100 µM | [10] > 100 µM | [13] > 100 µM | [14] > 100 µM | [15] > 100 µM | [16] > 100 µM | [17] > 100 µM | [18] > 100 µM

CC(C)(C)C(=O)/C=C/c1cccc(Oc2ccccc2)c1
inactive: [1] 20.1 µM | [2] 21.1 µM | [3] 18.8 µM | [5] 13.1 µM | [6] > 10 µM | [7] 3.94 µM | [8] > 10 µM | [9] 20 µM | [10] 5.93 µM | [11] 12.4 µM | [13] > 10 µM | [14] 18.7 µM | [15] 18.6 µM | [16] 14.6 µM | [18] 15.3 µM

O=C1OC(c2ccccc2)=N/C1=C/N1CCCC1C(=O)O (configuration not stated)
inactive: [1] > 100 µM | [2] > 100 µM | [3] > 100 µM | [4] > 100 µM | [5] > 100 µM | [6] > 100 µM | [7] > 100 µM | [8] > 100 µM | [9] > 100 µM | [10] > 100 µM | [11] > 100 µM | [12] > 100 µM | [13] > 100 µM | [14] > 100 µM | [15] > 100 µM | [17] > 100 µM | [18] > 100 µM

NNC(=O)C1CCC(=O)N1S(=O)(=O)c1ccccc1 (configuration not stated)
inactive: [1] > 100 µM | [2] > 100 µM | [3] > 100 µM | [4] > 100 µM | [5] > 100 µM | [6] > 100 µM | [7] > 100 µM | [8] > 100 µM | [10] > 100 µM | [11] > 100 µM | [12] > 100 µM | [13] > 100 µM | [14] > 100 µM | [15] > 100 µM | [16] > 100 µM | [17] > 100 µM | [18] > 100 µM

CO[C@@H]1C=C[C@@]23c4cc5c(cc4CN(C[C@@H]2O)[C@H]3C1)OCO5 [(+)-HAEMANTHAMINE]
inactive: [1] 28.6 µM | [2] 24 µM | [3] 14.6 µM | [4] 6.22 µM | [5] 9.16 µM | [6] 15.5 µM | [7] 29.6 µM | [8] 30.8 µM | [10] 7.67 µM | [11] 9.06 µM | [13] 29.7 µM | [14] 38 µM | [15] 5.94 µM | [16] 6.47 µM | [17] 14 µM | [18] 12.1 µM
